The record followed here is PubChem BioAssay (NCI).

Some test systems named below: A498 renal; HCT-116 colon; HOP-62 NSCLC; IGROV1 ovarian; MOLT-4 leukemia; NCI-H23 lung; OVCAR-4 ovarian; RPMI-8226 leukemia; SF-268 CNS; SR leukemia; T-47D breast.
What all share (experiment): NCI tumour cell line growth inhibition, 48 h

Molecules are shown by their SMILES.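 Compound exposure: 48 hours, 5 concentrations, 96-well plates. TGI marks complete inhibition of growth.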

For `CCCCC1=CC1(C#N)[N+](=O)[O-]` (stereo unspecified), the TGI was more than 100 µM in the test with A498 renal; more than 100 µM with HCT-116 colon; more than 100 µM with HOP-62 NSCLC; more than 100 µM in the test on IGROV1 ovarian; 67.5 µM in the test on MOLT-4 leukemia; more than 100 µM in the test with NCI-H23 lung. For the same compound, the TGI in the test on OVCAR-4 ovarian, with RPMI-8226 leukemia, in the test with SF-268 CNS, in the test on SR leukemia and with T-47D breast was more than 100 µM throughout.

For the compound `O=C1CSC(c2ccccc2[N+](=O)[O-])N1c1ccc(-n2c(-c3ccccc3)nc3ccccc3c2=O)cc1` (stereo unspecified), the TGI is more than 100 µM in the test on A498 renal; more than 100 µM in the test on HCT-116 colon; 54.1 µM in the test with HOP-62 NSCLC; more than 100 µM in the test with IGROV1 ovarian; more than 100 µM in the test on MOLT-4 leukemia; more than 100 µM in the test on NCI-H23 lung. Besides, the TGI in the test with OVCAR-4 ovarian is more than 100 µM; in the test on RPMI-8226 leukemia, more than 100 µM; in the test on SF-268 CNS it was more than 100 µM; in the test with SR leukemia it was more than 100 µM; in the test on T-47D breast, 98.4 µM.

Regarding `O=C1c2ccccc2-n2c1nc1cc(Cl)ccc1c2=O`, the TGI in the test on A498 renal, with HCT-116 colon, with HOP-62 NSCLC, with IGROV1 ovarian, in the test on MOLT-4 leukemia and in the test on NCI-H23 lung was more than 100 µM throughout. Besides, the TGI was more than 100 µM in the test on OVCAR-4 ovarian; more than 100 µM in the test on RPMI-8226 leukemia; more than 100 µM with SF-268 CNS; more than 100 µM in the test on SR leukemia; 48.8 µM in the test on T-47D breast.

In the case of `C[N+]1(CCCC[N+]2(C)CCCCCCC2)CCCCCCC1`, the TGI with A498 renal, in the test with HCT-116 colon, in the test on HOP-62 NSCLC, in the test with IGROV1 ovarian, in the test with MOLT-4 leukemia and in the test with NCI-H23 lung was more than 100 µM in each case. The TGI with OVCAR-4 ovarian, in the test on RPMI-8226 leukemia, in the test with SF-268 CNS, with SR leukemia and with T-47D breast was more than 100 µM throughout.

With `CN(C)C=Nc1c(Br)cc(Br)c2nonc12`, the TGI in the test on A498 renal, in the test with HCT-116 colon, in the test with HOP-62 NSCLC, in the test on IGROV1 ovarian, with MOLT-4 leukemia and in the test on NCI-H23 lung was more than 100 µM throughout. Further, the TGI in the test on OVCAR-4 ovarian, in the test with RPMI-8226 leukemia, with SF-268 CNS, in the test with SR leukemia and with T-47D breast was more than 100 µM throughout.

With `CCCCCCCCCCCCCCC[C@@H](O)C[N+](C)(C)CCO`, the TGI in the test with A498 renal is more than 100 µM; with HCT-116 colon it was more than 62.1 µM; in the test with HOP-62 NSCLC it was more than 100 µM; in the test with IGROV1 ovarian it was 2.11 µM; with MOLT-4 leukemia it was more than 24.5 µM; in the test on NCI-H23 lung it was 10.7 µM. The TGI with OVCAR-4 ovarian was 22.9 µM; in the test on RPMI-8226 leukemia it was more than 100 µM; in the test with SF-268 CNS, 6.66 µM; with SR leukemia, more than 23.6 µM; with T-47D breast, 55.6 µM.

On to `O=C(Nn1c(-c2ccccc2)nc2ccccc2c1=O)c1ccc(O)cc1`, for which the TGI in the test on A498 renal, with HCT-116 colon, in the test on HOP-62 NSCLC, in the test with IGROV1 ovarian, in the test on MOLT-4 leukemia and in the test on NCI-H23 lung was more than 100 µM in each case. Also, the TGI with OVCAR-4 ovarian, with RPMI-8226 leukemia, with SF-268 CNS, in the test with SR leukemia and in the test on T-47D breast was more than 100 µM in each case.

As for `COc1ccc2[nH]cc(CN3CCC(CO)(c4ccccc4)CC3)c2c1`, the TGI in the test with A498 renal is more than 100 µM; in the test with HCT-116 colon it was 35.8 µM; in the test on HOP-62 NSCLC, 58.8 µM; in the test on IGROV1 ovarian, more than 100 µM; in the test on MOLT-4 leukemia, 56.9 µM; in the test on NCI-H23 lung, more than 100 µM. In addition, the TGI with OVCAR-4 ovarian is more than 100 µM; with RPMI-8226 leukemia, 66 µM; with SF-268 CNS it was 34.8 µM; in the test with SR leukemia, 52.8 µM; with T-47D breast, 46.5 µM.

With `Cc1ccc(C(=O)c2[nH]c(Nc3ccc(Cl)cc3)c(C(=S)Nc3ccccc3)c2N)cc1`, the TGI stood at 27.9 µM in the test with A498 renal; 11 µM in the test on HCT-116 colon; 15.3 µM with HOP-62 NSCLC; 15 µM with IGROV1 ovarian; 32.6 µM in the test on MOLT-4 leukemia; 9.1 µM in the test on NCI-H23 lung. Besides, the TGI was 4.32 µM in the test with OVCAR-4 ovarian; 18 µM in the test on RPMI-8226 leukemia; 23.3 µM with SF-268 CNS; 10.7 µM in the test with SR leukemia; more than 100 µM in the test on T-47D breast.

Consider `COC(=O)CCSC1=CC(=O)c2nc3ccccc3c3ccnc1c23`, for which the TGI in the test with A498 renal was more than 100 µM; with HCT-116 colon it was 42.2 µM; with HOP-62 NSCLC, more than 100 µM; in the test on IGROV1 ovarian, 34.5 µM; in the test with MOLT-4 leukemia, 50.4 µM; with NCI-H23 lung it was 32 µM. For the same compound, the TGI is 41.9 µM in the test on OVCAR-4 ovarian; more than 100 µM in the test on RPMI-8226 leukemia; 34.3 µM with SF-268 CNS; more than 51.5 µM in the test with SR leukemia; 44.1 µM in the test on T-47D breast.

On to `Nc1nc(Sc2ccc([N+](=O)[O-])cn2)c2[nH]cnc2n1`, for which the TGI is 47.8 µM in the test on A498 renal; more than 39.7 µM in the test on HCT-116 colon; more than 100 µM with HOP-62 NSCLC; 77.9 µM with IGROV1 ovarian; more than 35.8 µM in the test with MOLT-4 leukemia; 31.2 µM with NCI-H23 lung. In addition, the TGI was more than 61.2 µM in the test with OVCAR-4 ovarian; more than 100 µM with RPMI-8226 leukemia; more than 100 µM in the test with SF-268 CNS; more than 100 µM in the test with SR leukemia; more than 42.3 µM in the test on T-47D breast.
